Assay: Powder characteristics (Carr index, anti-caking property, fluidity) by intelligent powder comprehensive characteristic tester
Assay type: physicochemical
Parameters: key to Fluidity: Good: “good” means good solid state and good fluidity, which is favorable for formulation development; Less good: “less good” means average fluidity; Poor: “poor” means poor fluidity, which cannot be used for formulation development; key to Anti-caking property: Good: “good” means substantially no agglomeration or clumping; Less good: “less good” means partial clumping or agglomeration; Poor: “poor” means severe or complete clumping
Excerpt: The performance of the drug powder is influenced by various factors, among which the fluidity, anti-caking property and the like of the starting material drug (i.e., active pharmaceutical ingredient) play a key role in the formulation design, the quality control, the process design, the industrial production and the like of the drug. In the pharmaceutical field, poor fluidity mainly affects the uniformity of the mixed material, and such mixed material is easy to delaminate and has uneven material content; at the same time, the resulting tablet are easy to delaminate during tableting, resulting in inconsistent content of the tablet pressed at different times, and it is easy to cause a significant difference in tablet weight.
The fluidity, the anti-caking property and the like of compound 1 (i.e., (6E)-6-[(6-chloro-2-methyl-2H-indazol-5-yl)imino]-3-[(1-methyl-1H-1,2,4-triazol-3-yl)methyl]-1-(2,4,5-trifluorobenzyl)-1,3,5-triazinane-2,4-dione with different purities) in the above Comparative Examples 1-2 and Examples 1-12 were measured by an intelligent powder comprehensive characteristic tester (HMKTest LABULK, model: HMKFlow 6393 PT1000).
The Carr index reflects the quality of the fluidity, and a smaller value indicates better fluidity, while a Carr index of more than 23% generally indicates poor fluidity. For anti-caking property, “good” means substantially no agglomeration or clumping, “less good” means partial clumping or agglomeration, and “poor” means severe or complete clumping. For fluidity, “good” means good solid state and good fluidity, which is favorable for formulation development; “less good” means average fluidity; and “poor” means poor fluidity, which cannot be used for formulation development.
Similarly, the fluidity of the fumarate salt solid form of compound 1 prepared in the above Examples 28-29 and Comparative Example 3 was measured.

[1] = solid form of compound 1, smaller value = better fluidity, more than 23% generally indicates poor fluidity
[2] = fumarate salt solid form of compound 1

| SMILES | Anti-caking property (solid form of compound 1) | Fluidity (solid form of compound 1) | Carr index (%) [1] | Anti-caking property [2] | Carr index (%) [2] | Fluidity [2] |
| --- | --- | --- | --- | --- | --- | --- |
| Cn1cnc(Cn2c(=O)[nH]/c(=N\c3cc4cn(C)nc4cc3Cl)n(Cc3cc(F)c(F)cc3F)c2=O)n1 [Example 7, (6E)-6-[(6-chloro-2-methyl-2H-indazol-5-yl)imino]-3-[(1-methyl-1H-1,2,4-triazol-3-yl)methyl]-1-(2,4,5-trifluorobenzyl)-1,3,5-triazinane-2,4-dione] | Less good | Good | 17.1% | – | – | – |
| Cn1cnc(Cn2c(=O)[nH]/c(=N\c3cc4cn(C)nc4cc3Cl)n(Cc3cc(F)c(F)cc3F)c2=O)n1 [Example 5, (6E)-6-[(6-chloro-2-methyl-2H-indazol-5-yl)imino]-3-[(1-methyl-1H-1,2,4-triazol-3-yl)methyl]-1-(2,4,5-trifluorobenzyl)-1,3,5-triazinane-2,4-dione] | Less good | Good | 18.8% | – | – | – |
| Cn1cnc(Cn2c(=O)[nH]/c(=N\c3cc4cn(C)nc4cc3Cl)n(Cc3cc(F)c(F)cc3F)c2=O)n1 [Example 3, (6E)-6-[(6-chloro-2-methyl-2H-indazol-5-yl)imino]-3-[(1-methyl-1H-1,2,4-triazol-3-yl)methyl]-1-(2,4,5-trifluorobenzyl)-1,3,5-triazinane-2,4-dione] | Less good | Good | 18.7% | – | – | – |
| Cn1cnc(Cn2c(=O)[nH]/c(=N\c3cc4cn(C)nc4cc3Cl)n(Cc3cc(F)c(F)cc3F)c2=O)n1 [Comparative Example 3, (6E)-6-[(6-chloro-2-methyl-2H-indazol-5-yl)imino]-3-[(1-methyl-1H-1,2,4-triazol-3-yl)methyl]-1-(2,4,5-trifluorobenzyl)-1,3,5-triazinane-2,4-dione, reference compound] | – | – | – | poor and Poor | 36.1% | poor and Poor |
| Cn1cnc(Cn2c(=O)[nH]/c(=N\c3cc4cn(C)nc4cc3Cl)n(Cc3cc(F)c(F)cc3F)c2=O)n1 [Example 6, (6E)-6-[(6-chloro-2-methyl-2H-indazol-5-yl)imino]-3-[(1-methyl-1H-1,2,4-triazol-3-yl)methyl]-1-(2,4,5-trifluorobenzyl)-1,3,5-triazinane-2,4-dione] | Less good | Good | 18.5% | – | – | – |
| Cn1cnc(Cn2c(=O)[nH]/c(=N\c3cc4cn(C)nc4cc3Cl)n(Cc3cc(F)c(F)cc3F)c2=O)n1 [Example 4, (6E)-6-[(6-chloro-2-methyl-2H-indazol-5-yl)imino]-3-[(1-methyl-1H-1,2,4-triazol-3-yl)methyl]-1-(2,4,5-trifluorobenzyl)-1,3,5-triazinane-2,4-dione] | Less good | Good | 19.4% | – | – | – |
| Cn1cnc(Cn2c(=O)[nH]/c(=N\c3cc4cn(C)nc4cc3Cl)n(Cc3cc(F)c(F)cc3F)c2=O)n1 [Comparative Example 1, (6E)-6-[(6-chloro-2-methyl-2H-indazol-5-yl)imino]-3-[(1-methyl-1H-1,2,4-triazol-3-yl)methyl]-1-(2,4,5-trifluorobenzyl)-1,3,5-triazinane-2,4-dione, reference compound] | Poor | Poor | 42.1% | – | – | – |
| Cn1cnc(Cn2c(=O)[nH]/c(=N\c3cc4cn(C)nc4cc3Cl)n(Cc3cc(F)c(F)cc3F)c2=O)n1 [Example 2, (6E)-6-[(6-chloro-2-methyl-2H-indazol-5-yl)imino]-3-[(1-methyl-1H-1,2,4-triazol-3-yl)methyl]-1-(2,4,5-trifluorobenzyl)-1,3,5-triazinane-2,4-dione] | Less good | Good | 20.7% | – | – | – |
| Cn1cnc(Cn2c(=O)[nH]/c(=N\c3cc4cn(C)nc4cc3Cl)n(Cc3cc(F)c(F)cc3F)c2=O)n1 [Example 1, (6E)-6-[(6-chloro-2-methyl-2H-indazol-5-yl)imino]-3-[(1-methyl-1H-1,2,4-triazol-3-yl)methyl]-1-(2,4,5-trifluorobenzyl)-1,3,5-triazinane-2,4-dione] | Less good | Good | 21.4% | – | – | – |
| Cn1cnc(Cn2c(=O)[nH]/c(=N\c3cc4cn(C)nc4cc3Cl)n(Cc3cc(F)c(F)cc3F)c2=O)n1 [Comparative Example 2, (6E)-6-[(6-chloro-2-methyl-2H-indazol-5-yl)imino]-3-[(1-methyl-1H-1,2,4-triazol-3-yl)methyl]-1-(2,4,5-trifluorobenzyl)-1,3,5-triazinane-2,4-dione, reference compound] | Poor | Poor | 39.4% | – | – | – |

Next, values leading:

| Anti-caking property (solid form of compound 1) | Fluidity (solid form of compound 1) | Carr index (%) [1] | Anti-caking property [2] | Carr index (%) [2] | Fluidity [2] | SMILES |
| --- | --- | --- | --- | --- | --- | --- |
| Good | Good | 15.1% | – | – | – | Cn1cnc(Cn2c(=O)[nH]/c(=N\c3cc4cn(C)nc4cc3Cl)n(Cc3cc(F)c(F)cc3F)c2=O)n1 [Example 12, (6E)-6-[(6-chloro-2-methyl-2H-indazol-5-yl)imino]-3-[(1-methyl-1H-1,2,4-triazol-3-yl)methyl]-1-(2,4,5-trifluorobenzyl)-1,3,5-triazinane-2,4-dione] |
| Good | Good | 13.4% | – | – | – | Cn1cnc(Cn2c(=O)[nH]/c(=N\c3cc4cn(C)nc4cc3Cl)n(Cc3cc(F)c(F)cc3F)c2=O)n1 [Example 10, (6E)-6-[(6-chloro-2-methyl-2H-indazol-5-yl)imino]-3-[(1-methyl-1H-1,2,4-triazol-3-yl)methyl]-1-(2,4,5-trifluorobenzyl)-1,3,5-triazinane-2,4-dione] |
| – | – | – | Less good | 12.1% | Good | Cn1cnc(Cn2c(=O)[nH]/c(=N\c3cc4cn(C)nc4cc3Cl)n(Cc3cc(F)c(F)cc3F)c2=O)n1 [Example 29, (6E)-6-[(6-chloro-2-methyl-2H-indazol-5-yl)imino]-3-[(1-methyl-1H-1,2,4-triazol-3-yl)methyl]-1-(2,4,5-trifluorobenzyl)-1,3,5-triazinane-2,4-dione] |
| Less good | Good | 21.2% | – | – | – | Cn1cnc(Cn2c(=O)[nH]/c(=N\c3cc4cn(C)nc4cc3Cl)n(Cc3cc(F)c(F)cc3F)c2=O)n1 [Example 8, (6E)-6-[(6-chloro-2-methyl-2H-indazol-5-yl)imino]-3-[(1-methyl-1H-1,2,4-triazol-3-yl)methyl]-1-(2,4,5-trifluorobenzyl)-1,3,5-triazinane-2,4-dione] |
| – | – | – | Good | 11.3% | Good | Cn1cnc(Cn2c(=O)[nH]/c(=N\c3cc4cn(C)nc4cc3Cl)n(Cc3cc(F)c(F)cc3F)c2=O)n1.O=C(O)/C=C/C(=O)O [Example 28, (6E)-6-[(6-chloro-2-methyl-2H-indazol-5-yl)imino]-3-[(1-methyl-1H-1,2,4-triazol-3-yl)methyl]-1-(2,4,5-trifluorobenzyl)-1,3,5-triazinane-2,4-dione fumarate salt] |
| Good | Good | 12.6% | – | – | – | Cn1cnc(Cn2c(=O)[nH]/c(=N\c3cc4cn(C)nc4cc3Cl)n(Cc3cc(F)c(F)cc3F)c2=O)n1 [Example 9, (6E)-6-[(6-chloro-2-methyl-2H-indazol-5-yl)imino]-3-[(1-methyl-1H-1,2,4-triazol-3-yl)methyl]-1-(2,4,5-trifluorobenzyl)-1,3,5-triazinane-2,4-dione] |
| Good | Good | 14.1% | – | – | – | Cn1cnc(Cn2c(=O)[nH]/c(=N\c3cc4cn(C)nc4cc3Cl)n(Cc3cc(F)c(F)cc3F)c2=O)n1 [Example 11, (6E)-6-[(6-chloro-2-methyl-2H-indazol-5-yl)imino]-3-[(1-methyl-1H-1,2,4-triazol-3-yl)methyl]-1-(2,4,5-trifluorobenzyl)-1,3,5-triazinane-2,4-dione] |
